Results on four compounds are retold here after patent publication US20100210584A1, “LIQUID OR PASTE COMPOSITIONS INTENDED TO PROVIDE ELEMENTS ESSENTIAL FOR THE SYNTHESIS AND FORMATION OF PROTEOGLYCANS, IN PARTICULAR, FOR THE TREATMENT OF CARTILAGE DEGRADATION” (priority 2007, published 2010).

Where two headings read alike, the source gives them in different places.

The conditions of data set [1]: placebo-controlled; cited from earlier work.
For data set [2] the following is noted: taken orally; cited from earlier work.
The conditions of data set [3]: cited from earlier work.
For data set [4] the following is noted: cited from earlier work. This is another data set of the same source.
The conditions of data set [5]: beyond a pH of 7.0; cited from earlier work.
Data set [6] in a line: Coloring (Maillard reaction) of aqueous solutions on storage. It is filed as physicochemical. The note with it: 6.0% in water by total weight of the composition. Here is the method:
At the chemical level, glucosamine, which can be of either natural or synthetic origin, is a glucose molecule to which an amino grouping has bonded. Consequently, in water without the addition of sugar, this molecule automatically leads to the appearance of a brown color of the solution by the condensation reaction of the different glucosamine molecules together. This appears clearly in an aqueous 7.5% glucosamine solution. After 8 months at 40° C., the solution takes on a caramel hue.
Three solutions have been produced, each containing 7.5% glucosamine by weight with respect to the total weight of the composition and 6.0% chondroitin sulfate by weight with respect to the total weight of the composition. In two solutions, anhydrous citric acid was added before the introduction of chondroitin sulfate. One of the solutions was heated at 100° C. for 10 minutes.

The conditions of data set [7]: animals, labeled chondroitin; cited from earlier work.
The conditions of data set [8]: humans, dependent on the molecular weight; cited from earlier work.
For data set [9] the following is noted: 800 to 1200 mg/day; cited from earlier work.
The next data set concerns arthritic knee joint. The following applies: three to five injections at one-week intervals, on average; cited from earlier work.

Regarding `CC(=O)Oc1cccc2c1C(=O)c1c(OC(C)=O)cc(C(=O)O)cc1C2=O` [Diacerein], in [1], the articular joint space entry is “significant decrease in the articular joint space”.

On to `N[C@H]1C(O)O[C@H](CO)[C@@H](O)[C@@H]1O` (stereo partly shown) [glucosamine], for which, in data set [2], the absorption is about 90% and the “time until maximum concentration is reached” value was 8 h. Further, the “efficacy on joint pain and swelling compared with ibuprofen” value in data set [3] (beginning in the second week of treatment) is given as “more effective than ibuprofen”. For the same compound, the articular joint space entry in data set [3] (in vivo) was “preserves the articular joint space”. In addition, in data set [4], the “solubility in water and in an alcohol medium” value is recorded as “highly soluble”. For the same compound, the degradation entry in data set [5] is given as “degrades rapidly”.

For the compound chondroitin sulfate, the “intensity of coloring compared with a pure 7.5% glucosamine solution” value in [6] is reported as “ten times less intense”. Also, the absorption result in data set [7] is on record as “more than 66%”. In addition, in data set [8], the absorption entry is reported as “around 15%”. In [9], the Lequesne index result is given as “improves the Lequesne index”, the articular joint space result is “preserves the articular joint space”, the mobility result is “improves mobility” and the pain result is listed as “reduces pain”. Also, the solubility in alcohols result in data set [4] (ethanol, propanol-1 and isopropanol) was “insoluble”.

Regarding hyaluronic acid, the duration of efficacy in the data set on arthritic knee joint is listed as 8-9 months.
